Experimental data reported in ChEMBL document CHEMBL1201862, “PubChem BioAssay data set” (2004).
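How tested: cells in 96-well plates exposed to compound for 48 hours at five concentrations. Here, GI50 denotes the concentration required for 50% inhibition of growth.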 Active and inactive are the calls of the source. Cut-off read from the data, not from the text of the source: active = GI50 up to about 1.1 µM and inactive = higher.

Experiments:
Assay in all cases: NCI anticancer screen, dose series, 48 h
[1] = test system: MDA-MB-231
[2] = test system: NCI-H23
[3] = test system: LOX IMVI
[4] = test system: BT-549
[5] = test system: DU-145
[6] = test system: SNB-75
[7] = test system: T47D
[8] = test system: KM12
[9] = test system: Malme-3M
[10] = test system: TK-10
[11] = test system: SF-295
[12] = test system: PC-3
[13] = test system: Hs-578T
[14] = test system: OVCAR-8
[15] = test system: NCI/ADR-RES
[16] = test system: RXF 393
[17] = test system: SR
[18] = test system: CCRF-CEM
[19] = test system: SW-620
[20] = test system: MOLT-4
[21] = test system: M14
[22] = test system: RPMI-8226
[23] = test system: SNB-19
[24] = test system: MDA-MB-435
[25] = test system: OVCAR-4
[26] = test system: SF-539
[27] = test system: HOP-62
[28] = test system: SK-MEL-5
[29] = test system: SK-MEL-28
[30] = test system: SN12C
[31] = test system: K562
[32] = test system: CAKI-1
[33] = test system: HOP-92
[34] = test system: SK-MEL-2
[35] = test system: NCI-H226
[36] = test system: IGROV-1
[37] = test system: NCI-H460
[38] = test system: COLO 205
[39] = test system: HCT-15
[40] = test system: ACHN
[41] = test system: U-251
[42] = test system: NCI-H522
[43] = test system: UACC-257
[44] = test system: SK-OV-3
[45] = test system: HT-29
[46] = test system: HL-60
[47] = test system: A549
[48] = test system: HCT-116
[49] = test system: UO-31
[50] = test system: OVCAR-3
[51] = test system: SF-268
[52] = test system: 786-0
[53] = test system: OVCAR-5
[54] = test system: EKVX
[55] = test system: MDA-N

## O=C(c1cccnc1)N1N=C(c2ccccc2)CC1(O)c1cc(F)c(Cl)cc1Cl (stereo not given)
[1]
  GI50: 15.7 µM (inactive)
[2]
  GI50: 27 µM (inactive)
[3]
  GI50: 15.7 µM (inactive)
[4]
  GI50: 20.3 µM (inactive)
[5]
  GI50: 32.1 µM (inactive)
[6]
  GI50: 16.4 µM (inactive)
[7]
  GI50: 12.3 µM (inactive)
[8]
  GI50: 25.6 µM (inactive)
[9]
  GI50: 29.2 µM (inactive)
[10]
  GI50: 41 µM (inactive)
[11]
  GI50: 16.3 µM (inactive)
[12]
  GI50: 20.5 µM (inactive)
[13]
  GI50: 27 µM (inactive)
[14]
  GI50: 25.5 µM (inactive)
[15]
  GI50: 23.5 µM (inactive)
[16]
  GI50: 16.7 µM (inactive)
[17]
  GI50: 22.5 µM (inactive)
[18]
  GI50: 24.6 µM (inactive)
[19]
  GI50: 28.3 µM (inactive)
[20]
  GI50: 14.5 µM (inactive)
[21]
  GI50: 22 µM (inactive)
[22]
  GI50: 18.2 µM (inactive)
[23]
  GI50: 40 µM (inactive)
[24]
  GI50: 26.9 µM (inactive)
[25]
  GI50: 27 µM (inactive)
[26]
  GI50: 15.4 µM (inactive)
[27]
  GI50: 16.1 µM (inactive)
[28]
  GI50: 13.9 µM (inactive)
[29]
  GI50: 25.1 µM (inactive)
[30]
  GI50: 17.2 µM (inactive)
[31]
  GI50: 21.4 µM (inactive)
[32]
  GI50: 33.3 µM (inactive)
[33]
  GI50: 20.7 µM (inactive)
[34]
  GI50: 19.4 µM (inactive)
[35]
  GI50: 15.6 µM (inactive)
[36]
  GI50: 10.4 µM (inactive)
[37]
  GI50: 18.6 µM (inactive)
[38]
  GI50: 14.1 µM (inactive)
[39]
  GI50: 26.2 µM
[40]
  GI50: 23.2 µM (inactive)
[41]
  GI50: 16.4 µM (inactive)
[42]
  GI50: 26.1 µM (inactive)
[43]
  GI50: 18.6 µM (inactive)
[44]
  GI50: 23.7 µM (inactive)
[45]
  GI50: 19.6 µM (inactive)
[46]
  GI50: 21.4 µM (inactive)
[47]
  GI50: 27.6 µM (inactive)
[48]
  GI50: 13.8 µM (inactive)
[49]
  GI50: 25.6 µM (inactive)
[50]
  GI50: 7.31 µM (inactive)
[51]
  GI50: 30.5 µM (inactive)
[52]
  GI50: 22.1 µM (inactive)
[53]
  GI50: 32.8 µM (inactive)
[54]
  GI50: 21.8 µM (inactive)
[55]
  GI50: 28.6 µM (inactive)
